Assays:
α4β1 = target: T1, α4β1 (Homo sapiens, UniProt P05556+P13612); assay: Ramos Cell Adhesion Assay (α4β1 Mediated Adhesion/VCAM-1); format: cell-based; conditions: Ramos cell adhesion to hVCAM-1; read-out: α4β1 IC50
T1 construct: Ramos Cell Adhesion Assay (α4β1 Mediated Adhesion/VCAM-1); endogenous in cells; host or cells: Ramos cells
Summary of the method: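 Plates coated overnight at 4° C with recombinant hVCAM-1 at 4.0 μg/mL, pH 9.0, then blocked in PBS/1% BSA. Calcein AM-labeled Ramos cells added with compounds and left to adhere 1 h at room temperature; after washing, cells lysed in 1 M Tris pH 8.0/1% SDS.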

human α4β7 integrin = target: T2, human α4β7 integrin (Homo sapiens, UniProt P13612+P26010); assay: α4β7-K562 Cell Adhesion Assay (α4β7 Mediated Adhesion/MAdCAM-1); format: cell-based; conditions: α4β7-K562 cell adhesion to hMAdCAM-1; read-out: α4β7 IC50
T2 construct: expressed in transfected cells; host or cells: K562 cells, stably transfected
T2 sequence (P13612 34-1032): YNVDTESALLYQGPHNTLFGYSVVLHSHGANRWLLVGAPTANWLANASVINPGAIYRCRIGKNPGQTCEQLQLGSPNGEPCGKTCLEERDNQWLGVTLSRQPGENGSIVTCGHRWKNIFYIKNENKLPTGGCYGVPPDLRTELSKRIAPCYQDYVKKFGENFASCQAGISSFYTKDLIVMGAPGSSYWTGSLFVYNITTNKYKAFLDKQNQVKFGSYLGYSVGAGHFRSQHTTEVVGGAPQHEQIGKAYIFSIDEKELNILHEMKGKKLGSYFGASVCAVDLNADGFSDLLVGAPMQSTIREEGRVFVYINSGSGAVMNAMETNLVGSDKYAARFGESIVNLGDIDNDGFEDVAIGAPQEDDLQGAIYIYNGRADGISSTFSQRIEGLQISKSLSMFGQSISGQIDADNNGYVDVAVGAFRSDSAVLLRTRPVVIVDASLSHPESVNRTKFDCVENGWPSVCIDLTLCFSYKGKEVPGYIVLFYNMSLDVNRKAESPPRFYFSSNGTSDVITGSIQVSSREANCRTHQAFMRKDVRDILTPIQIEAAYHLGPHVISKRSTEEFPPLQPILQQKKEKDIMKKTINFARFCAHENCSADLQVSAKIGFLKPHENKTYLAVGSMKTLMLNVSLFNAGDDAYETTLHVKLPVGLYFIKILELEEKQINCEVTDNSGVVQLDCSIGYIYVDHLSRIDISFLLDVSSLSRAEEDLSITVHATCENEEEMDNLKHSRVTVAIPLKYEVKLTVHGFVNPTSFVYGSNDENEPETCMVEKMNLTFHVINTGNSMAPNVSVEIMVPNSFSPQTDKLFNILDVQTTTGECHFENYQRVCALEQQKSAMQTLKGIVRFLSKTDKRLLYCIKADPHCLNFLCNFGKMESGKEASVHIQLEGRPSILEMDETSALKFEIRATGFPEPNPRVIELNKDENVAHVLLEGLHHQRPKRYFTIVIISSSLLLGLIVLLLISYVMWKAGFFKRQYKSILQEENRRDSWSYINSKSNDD
T2 sequence (P26010 20-798): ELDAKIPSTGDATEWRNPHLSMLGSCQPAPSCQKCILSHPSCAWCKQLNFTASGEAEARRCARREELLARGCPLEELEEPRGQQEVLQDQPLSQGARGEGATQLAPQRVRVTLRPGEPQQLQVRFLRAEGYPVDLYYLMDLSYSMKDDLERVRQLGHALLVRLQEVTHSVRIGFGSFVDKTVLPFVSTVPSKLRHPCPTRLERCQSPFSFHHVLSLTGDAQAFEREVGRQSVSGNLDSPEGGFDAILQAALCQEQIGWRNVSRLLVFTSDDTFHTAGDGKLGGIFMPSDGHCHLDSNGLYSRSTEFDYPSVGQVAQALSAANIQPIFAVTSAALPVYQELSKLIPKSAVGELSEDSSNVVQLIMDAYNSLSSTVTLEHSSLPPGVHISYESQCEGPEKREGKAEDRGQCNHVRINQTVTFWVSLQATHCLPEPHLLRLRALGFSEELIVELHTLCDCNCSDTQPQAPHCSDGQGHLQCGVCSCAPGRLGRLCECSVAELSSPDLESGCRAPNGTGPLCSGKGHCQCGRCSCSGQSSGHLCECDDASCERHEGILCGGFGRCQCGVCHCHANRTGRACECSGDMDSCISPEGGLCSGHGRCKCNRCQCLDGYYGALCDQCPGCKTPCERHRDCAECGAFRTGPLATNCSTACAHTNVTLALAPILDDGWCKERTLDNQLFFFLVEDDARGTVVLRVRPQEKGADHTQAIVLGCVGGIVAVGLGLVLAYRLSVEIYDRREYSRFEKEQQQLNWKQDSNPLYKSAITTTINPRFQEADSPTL
Summary of the method: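 Anti-FLAG plates coated 1 h at 4° C with FLAG-hMAdCAM-1 in PBS pH 7.4, 1% BSA, 1 mM Mn2+. Stably transfected K562 cells expressing human α4β7, labelled with CFDA-SE, adhered with compound 1 h at room temperature. After four washes, bound cells lysed in 0.1 M NaOH for fluorescence read-out.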

T1 sequence (P05556 21-798, one chain of several): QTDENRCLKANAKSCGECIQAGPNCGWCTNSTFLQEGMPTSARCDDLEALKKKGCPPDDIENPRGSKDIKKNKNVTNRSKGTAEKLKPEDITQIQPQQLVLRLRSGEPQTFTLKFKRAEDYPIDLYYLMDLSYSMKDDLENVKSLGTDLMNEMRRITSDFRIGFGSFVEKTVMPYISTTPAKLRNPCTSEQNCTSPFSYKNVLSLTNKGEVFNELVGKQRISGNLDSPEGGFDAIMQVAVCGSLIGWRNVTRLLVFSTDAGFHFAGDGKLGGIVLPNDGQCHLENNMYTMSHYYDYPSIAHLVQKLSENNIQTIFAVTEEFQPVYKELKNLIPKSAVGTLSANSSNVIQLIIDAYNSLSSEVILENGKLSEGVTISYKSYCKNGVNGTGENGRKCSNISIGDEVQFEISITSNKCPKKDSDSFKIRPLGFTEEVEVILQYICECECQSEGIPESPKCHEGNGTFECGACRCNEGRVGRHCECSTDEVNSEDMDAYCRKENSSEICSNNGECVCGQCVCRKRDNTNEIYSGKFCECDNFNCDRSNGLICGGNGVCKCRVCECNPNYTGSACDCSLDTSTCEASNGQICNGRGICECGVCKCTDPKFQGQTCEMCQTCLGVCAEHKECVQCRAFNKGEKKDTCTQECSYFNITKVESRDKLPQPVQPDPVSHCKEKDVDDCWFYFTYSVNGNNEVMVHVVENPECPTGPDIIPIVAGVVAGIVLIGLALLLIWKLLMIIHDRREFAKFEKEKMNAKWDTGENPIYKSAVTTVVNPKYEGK

Compound: COc1cnn(C)c(=O)c1-c1ccc(C[C@H](NC(=O)O[C@H](C)c2ccccc2)C(=O)O)cc1 [Cpd 209]
- IC50 (α4β1): > 5000 nM
- IC50 (human α4β7 integrin): 3140 nM

Compound: COCCOCCOC(=O)[C@H](Cc1ccc(-c2c(OC)cnn(C)c2=O)cc1)NC(=O)c1c(Cl)cccc1Cl [Cpd 91]
- IC50 (α4β1): 2380 nM
- IC50 (human α4β7 integrin): 49 nM

Compound: COc1cnn(C)c(=O)c1-c1ccc(C[C@H](NC(=O)C2CCN(C(=O)OCc3ccccc3)CC2)C(=O)O)cc1 [Cpd 164]
- IC50 (α4β1): > 5000 nM
- IC50 (human α4β7 integrin): 457 nM

Compound: CN1CCC(Oc2cnn(CCO)c(=O)c2-c2ccc(C[C@H](NC(=O)c3c(Cl)cccc3Cl)C(=O)O)cc2)C1 (some centres unmarked) [Cpd 72]
- IC50 (α4β1): 190 nM
- IC50 (human α4β7 integrin): 26 nM

Compound: COc1cnn(C)c(=O)c1-c1ccc(C[C@H](NC(=O)C2(C(N)=O)CC2)C(=O)O)cc1 [Cpd 38]
- IC50 (α4β1): > 5000 nM
- IC50 (human α4β7 integrin): 9 nM

Compound: O=C(N[C@@H](Cc1ccc(-c2c(OCCN3CCOCC3)cnn(CCO)c2=O)cc1)C(=O)O)c1c(Cl)cccc1Cl [Cpd 22]
- IC50 (α4β1): 376 nM
- IC50 (human α4β7 integrin): 3 nM

Compound: COc1cnn(CCN2CCOCC2)c(=O)c1-c1ccc(C[C@H](NC(=O)[C@H](NC(=O)OC(C)(C)C)[C@H](C)O)C(=O)O)cc1 [Cpd 167]
- IC50 (α4β1): > 5000 nM
- IC50 (human α4β7 integrin): 480 nM

Compound: COc1cnn(C)c(=O)c1-c1ccc(C[C@H](NC(=O)[C@@H](C(C)C)N(C)C(=O)CCc2ccccc2)C(=O)O)cc1 [Cpd 90]
- IC50 (α4β1): 4500 nM
- IC50 (human α4β7 integrin): 48 nM

Compound: COc1cnn(C)c(=O)c1-c1ccc(C[C@H](NC(=O)c2cc(=O)[nH]c(=O)[nH]2)C(=O)O)cc1 [Cpd 163]
- IC50 (α4β1): > 5000 nM
- IC50 (human α4β7 integrin): 429 nM

Compound: COc1cnn(C)c(=O)c1-c1ccc(C[C@H](NC(=O)C(C)(C)O)C(=O)O)cc1 [Cpd 185]
- IC50 (α4β1): > 5000 nM
- IC50 (human α4β7 integrin): 817 nM

Compound: COc1cnn(C)c(=O)c1-c1ccc(C[C@H](NC(=O)[C@@H]2C3CCC(CC3)N2C(=O)Cc2ccsc2)C(=O)O)cc1 [Cpd 113]
- IC50 (α4β1): 44 nM
- IC50 (human α4β7 integrin): 88 nM

Compound: COc1cnn(CCO)c(=O)c1-c1ccc(C[C@H](NC(=O)OC(C)(C)C)C(=O)OCCO)cc1 [Cpd 212]
- IC50 (α4β1): > 5000 nM
- IC50 (human α4β7 integrin): > 5000 nM

Compound: COc1cnn(C)c(=O)c1-c1ccc(CC(NC(=O)C2CCCN2)C(=O)O)cc1 (mixture of isomers) [Cpd 166]
- IC50 (α4β1): > 5000 nM
- IC50 (human α4β7 integrin): 478 nM

Compound: O=C(N[C@@H](Cc1ccc(-c2c(OC3CCCC3)cnn(CCO)c2=O)cc1)C(=O)O)c1c(Cl)cccc1Cl [Cpd 43]
- IC50 (α4β1): 437 nM
- IC50 (human α4β7 integrin): 12 nM

Compound: COc1cnn(C)c(=O)c1-c1ccc(C[C@H](NC(=O)c2cnc[nH]2)C(=O)O)cc1 [Cpd 205]
- IC50 (α4β1): > 5000 nM
- IC50 (human α4β7 integrin): 2320 nM

Compound: CCOC(=O)Cc1cnn(C)c(=O)c1-c1ccc(C[C@H](NC(=O)c2c(Cl)cccc2Cl)C(=O)O)cc1 [Cpd 121, (S)-2-(2,6-dichloro-benzoylamino)-3-[4-(5ethoxycarbonylmethyl-2-methyl-3-oxo-2,3-dihydro-pyridazin-4-yl)-phenyl]-propionic acid]
- IC50 (α4β1): > 5000 nM
- IC50 (human α4β7 integrin): 114 nM

Compound: COc1cnn(CC(C)=O)c(=O)c1-c1ccc(C[C@H](NC(=O)c2c(Cl)cccc2Cl)C(=O)O)cc1 [Cpd 228]
- IC50 (α4β1): 535 nM
- IC50 (human α4β7 integrin): 6 nM

Compound: COc1cnn(CCN2CCOCC2)c(=O)c1-c1ccc(C[C@H](NC(=O)[C@H](N)C(C)C)C(=O)O)cc1 [Cpd 210]
- IC50 (α4β1): > 5000 nM
- IC50 (human α4β7 integrin): 4650 nM

Compound: CNC(C(=O)NC(Cc1ccc(-c2c(OC)cnn(C)c2=O)cc1)C(=O)O)C(C)C (single isomer, unassigned) [Cpd 54]
- IC50 (α4β1): 4020 nM
- IC50 (human α4β7 integrin): 17 nM

Compound: Cn1ncc(N)c(-c2ccc(C[C@H](NC(=O)OC(C)(C)C)C(=O)O)cc2)c1=O [Cpd 190]
- IC50 (α4β1): > 5000 nM
- IC50 (human α4β7 integrin): 979 nM

Compound: COc1cnn(CC(F)(F)F)c(=O)c1-c1ccc(C[C@H](NC(=O)c2c(Cl)cccc2Cl)C(=O)O)cc1 [Cpd 39]
- IC50 (α4β1): 588 nM
- IC50 (human α4β7 integrin): 10 nM

Compound: O=C(N[C@@H](Cc1ccc(-c2c(-n3ncc4ccccc43)cnn(CCO)c2=O)cc1)C(=O)O)c1c(Cl)cccc1Cl [Cpd 88]
- IC50 (α4β1): 1040 nM
- IC50 (human α4β7 integrin): 46 nM

Compound: CC(C)(C)C(=O)Cn1ncc(NC2CC2)c(-c2ccc(C[C@H](NC(=O)c3c(Cl)cccc3Cl)C(=O)O)cc2)c1=O [Cpd 92]
- IC50 (α4β1): > 5000 nM
- IC50 (human α4β7 integrin): 52 nM

Compound: Cn1ncc(OCCOCCO)c(-c2ccc(C[C@H](NC(=O)c3c(Cl)cccc3Cl)C(=O)O)cc2)c1=O [Cpd 7]
- IC50 (α4β1): 192 nM
- IC50 (human α4β7 integrin): 2 nM

Compound: Cn1ncc(OCCO)c(-c2ccc(C[C@H](NC(=O)c3c(Cl)cccc3Cl)C(=O)O)cc2)c1=O [Cpd 8]
- IC50 (α4β1): 303 nM
- IC50 (human α4β7 integrin): 2 nM

Compound: COc1cnn(C)c(=O)c1-c1ccc(C[C@H](NC(=O)C(N)C(C)C)C(=O)O)cc1 (some centres unmarked) [Cpd 159]
- IC50 (α4β1): > 5000 nM
- IC50 (human α4β7 integrin): 363 nM

Compound: COc1cnn(C)c(=O)c1-c1ccc(C[C@H](NC(=O)C2CCNCC2)C(=O)O)cc1 [Cpd 198]
- IC50 (α4β1): > 5000 nM
- IC50 (human α4β7 integrin): 1340 nM

Compound: Cn1ncc(OCC2CC2)c(-c2ccc(C[C@H](NC(=O)c3c(Cl)cccc3Cl)C(=O)O)cc2)c1=O [Cpd 86, (S)-3-[4-(5-Cyclopropylmethoxy-2-methyl-3-oxo-2,3-dihydro-pyridazin-4-yl)-phenyl]-2-(2,6-dichloro-benzoylamino)-propionic acid]
- IC50 (α4β1): 212 nM
- IC50 (human α4β7 integrin): 44 nM

Compound: O=C(N[C@@H](Cc1ccc(-c2c(-n3nccc3-c3cccs3)cnn(CCO)c2=O)cc1)C(=O)O)c1c(Cl)cccc1Cl [Cpd 131, (S)-2-(2,6-Dichloro-benzoylamino)-3-{4-[2-(2-hydroxy-ethyl)-3-oxo-5-(5-thiophen-2-yl-pyrazol-1-yl)-2,3-di hydro-pyridazin-4-yl]-phenyl}-propionic acid]
- IC50 (α4β1): > 5000 nM
- IC50 (human α4β7 integrin): 152 nM

Compound: COc1cnn(C)c(=O)c1-c1ccc(CC(NC(=O)C(NC(C)C)C(C)C)C(=O)O)cc1 (centres unmarked) [Cpd 153, 2-(2-Isopropylamino-3-methyl-butyrylamino)-3-[4-(5-methoxy-2-methyl-3-oxo-2,3-dihydro-pyridazin-4-yl)-phenyl]-propionic acid]
- IC50 (α4β1): 2050 nM
- IC50 (human α4β7 integrin): 295 nM

Compound: CS(=O)(=O)c1ccc(-c2cnn(CC3CC3)c(=O)c2-c2ccc(C[C@H](NC(=O)c3c(Cl)cccc3Cl)C(=O)O)cc2)cc1 [Cpd 65]
- IC50 (α4β1): 4220 nM
- IC50 (human α4β7 integrin): 21 nM

Compound: COc1cnn(C)c(=O)c1-c1ccc(C[C@H](NC(=O)OCc2c(C)cc(C)cc2C)C(=O)O)cc1 [Cpd 203]
- IC50 (α4β1): > 5000 nM
- IC50 (human α4β7 integrin): 1780 nM

Compound: CCOc1cnn(C)c(=O)c1-c1ccc(C[C@H](NC(=O)c2c(Cl)cccc2Cl)C(=O)O)cc1 [Cpd 4]
- IC50 (α4β1): 168 nM
- IC50 (human α4β7 integrin): 1 nM

Compound: COc1cnn(C)c(=O)c1-c1ccc(C[C@H](NC(=O)C2(c3ccc(F)cc3)CCCC2)C(=O)O)cc1 [Cpd 132]
- IC50 (α4β1): > 5000 nM
- IC50 (human α4β7 integrin): 152 nM
